Measurements taken from ChEMBL document CHEMBL4024702, “Covalent Modifiers: A Chemical Perspective on the Reactivity of α,β-Unsaturated Carbonyls with Thiols via Hetero-Michael Addition Reactions” (J Med Chem, 2017).

How the values were obtained:
[1] = Glutathione reactivity of the compound in DMSO and phosphate buffer assessed as second order rate constant for adduct formation
[2] = Cysteamine reactivity of the compound in TRIS-HCL assessed as second order rate constant at 40 uM and pH 7.4
[3] = Thiol reactivity of the compound in PBS/DMSO buffer assessed as pseudo-first order rate constant for adduct formation
[4] = tested on: rhinovirus B14; experiment: Irreversible inhibition of human rhinovirus serotype 14 3C protease assessed as ratio of Kobs/I by spectrofluorimetric analysis
[5] = tested on: rhinovirus B14; experiment: Antiviral activity against rhinovirus serotype 14 infected in human H1HeLa cells after 2 days by XTT/PMS dye based assay; format: functional, cell-based; details: Rhinovirus B, H1-HeLa, 48 h
[6] = Cytotoxicity against human H1HeLa cells after 2 days by XTT/PMS dye based assay; format: cell-based, H1-HeLa
[7] = tested on: 518A2; experiment: Cytotoxicity against human 518A2 cells assessed as reduction in cell viability after 96 hrs by SRB asssay; format: functional, cell-based; details: 518A2, 96 h
[8] = tested on: A-431; experiment: Cytotoxicity against human A431 cells assessed as reduction in cell viability after 96 hrs by SRB asssay; format: functional, cell-based; details: A-431, 96 h
[9] = tested on: A549; experiment: Cytotoxicity against human A549 cells assessed as reduction in cell viability after 96 hrs by SRB asssay; format: functional, cell-based; details: A549, 96 h
[10] = tested on: HT-29; experiment: Cytotoxicity against human HT-29 cells assessed as reduction in cell viability after 96 hrs by SRB asssay; format: functional, cell-based; details: HT-29, 96 h
[11] = tested on: MCF7; experiment: Cytotoxicity against human MCF7 cells assessed as reduction in cell viability after 96 hrs by SRB asssay; format: functional, cell-based; details: MCF7, 96 h

With `CCCCC/C=C/C=O` the K [1] was 18 M⁻¹ s⁻¹.
`COc1ccc(C(C(=O)c2ccc(OC)cc2OC)C(SCCN)c2ccc(OC)c(OC)c2)cc1` (centres undefined) showed a K [2] of 0.0086 M⁻¹ s⁻¹.
In the case of `C/C=C/C(C)=O`, the K [1] is reported as 26.7 M⁻¹ s⁻¹.
Compound `CS(=O)(=O)/C=C/CNC(=O)c1ccccc1` has a K [3] of 3.9 ×10⁻³ /s.
With `CC(=O)N1CC/C(=C\[C@H](CCC(N)=O)NC(=O)[C@H](Cc2ccccc2)NC(=O)[C@H](CC(C)C)NC(=O)OCc2ccccc2)C1=O` the Ratio [4] was 156000 M⁻¹ s⁻¹, the EC50 [5] was 0.71 µM and the CC50 at 48 h [6] was > 100 µM.
With `CC(C)C[C@H](NC(=O)OCc1ccccc1)C(=O)N[C@@H](Cc1ccccc1)C(=O)N[C@H](/C=C/C(=O)N(C)C)CCC(N)=O` the Ratio [4] was 1300 M⁻¹ s⁻¹, the EC50 [5] was 56 µM and the CC50 at 48 h [6] was > 100 µM.
With `CC1=CC[C@]23O[C@@]2(C)CC[C@@H]2[C@H](OC(=O)[C@H]2CSc2ccccc2C(=O)O)[C@@H]13` the IC50 [7] was 16.9 µM, the IC50 [8] was 13.6 µM and the IC50 [9] was 10.1 µM. The IC50 [10] was 17.8 µM and the IC50 [11] was 16.9 µM.
With `CCC/C=C/C/C=C/C=O` the K [1] was 22.8 M⁻¹ s⁻¹.
In the case of `C=CC(=O)OCC`, the K [1] is reported as 10.6 M⁻¹ s⁻¹.
For `COc1ccc(C(=O)C(c2ccccc2)C(SCCN)c2ccc(OC)c(OC)c2)c(OC)c1` (centres undefined), the K [2] was 0.0067 M⁻¹ s⁻¹.
For `O=C(/C=C/c1ccccc1)c1ccccc1`, the K [2] was 3 M⁻¹ s⁻¹.
For `C=CCOC(=O)C=C`, the K [1] was 19.6 M⁻¹ s⁻¹.
For `CC(=O)/C=C/[C@H](CCC(N)=O)NC(=O)[C@H](Cc1ccccc1)NC(=O)[C@H](CC(C)C)NC(=O)OCc1ccccc1`, the Ratio [4] was 54000 M⁻¹ s⁻¹, the EC50 [5] was 2 µM and the CC50 at 48 h [6] was 60 µM.
For `CC1=CCCC1=O`, the K [1] was 0.2 M⁻¹ s⁻¹.
Compound `CCCC/C=C/C=C/C=O` has a K [1] of 3.49 M⁻¹ s⁻¹.
In the case of `COC(=O)/C=C/CNC(=O)c1ccc(OC)cc1`, the K [3] is reported as 3.7 ×10⁻⁴ /s.
For `C=CC(=O)Nc1ccc(OC)cc1`, the K [3] was 3.9 ×10⁻⁵ /s.
Work on `CC(=O)C=C(C)C` yielded a K [1] of 0.208 M⁻¹ s⁻¹.
For `CC(C)C[C@H](NC(=O)OCc1ccccc1)C(=O)N[C@@H](Cc1ccccc1)C(=O)N[C@H](/C=C1\CCOC1=O)CCC(N)=O`, the Ratio [4] was 10900 M⁻¹ s⁻¹, the EC50 [5] was 5.2 µM and the CC50 at 48 h [6] was > 320 µM.
`C=CS(=O)(=O)Nc1ccccc1` gave a K [3] of 7.2 ×10⁻² /s.
In the case of `COC(=O)/C=C/CNC(=O)c1ccc([N+](=O)[O-])cc1`, the K [3] is reported as 5.9 ×10⁻⁴ /s.
Work on `C=CC#CC(C)=O` yielded a K [1] of 80 M⁻¹ s⁻¹.
For `CC(C)C[C@H](NC(=O)OCc1ccccc1)C(=O)N[C@@H](Cc1ccccc1)C(=O)N[C@H](/C=C/C(=O)N1CC=CC1)CCC(N)=O`, the Ratio [4] was 8500 M⁻¹ s⁻¹, the EC50 [5] was > 44 µM and the CC50 at 48 h [6] was 44 µM.
Work on `COc1ccc(C(=O)C(C)C(SCCN)c2ccc(OC)c(OC)c2)c(OC)c1` (centres undefined) yielded a K [2] of 0.0075 M⁻¹ s⁻¹.
`CCCCC/C=C/C(=O)OC` showed a K [1] of 0.785 M⁻¹ s⁻¹.
With `COc1ccc(C(=O)C(C(=O)O)C(SCCN)c2ccc(OC)c(OC)c2)c(OC)c1` (centres undefined) the K [2] was 0.0037 M⁻¹ s⁻¹.
Work on `CC1=CC[C@]23O[C@@]2(C)CC[C@@H]2[C@H](OC(=O)[C@H]2CN(C)C)[C@@H]13` yielded an IC50 [7] of 5.54 µM, an IC50 [8] of 5.19 µM and an IC50 [9] of 1.95 µM. For the same compound, the IC50 [10] was 10.8 µM and the IC50 [11] was 1.85 µM.
For `CC(C)C[C@H](NC(=O)OCc1ccccc1)C(=O)N[C@@H](Cc1ccccc1)C(=O)N[C@H](/C=C/C(=O)c1ccc([N+](=O)[O-])cc1)CCC(N)=O`, the Ratio [4] was 310000 M⁻¹ s⁻¹, the EC50 [5] was > 32 µM and the CC50 at 48 h [6] was 32 µM.
In the case of `C=C1C(=O)O[C@@H]2[C@H]3C(C)=CC[C@@]34O[C@@]4(C)CC[C@@H]12` [ARGLABIN], the IC50 [7] is reported as 6.72 µM, the IC50 [8] is reported as 4.48 µM and the IC50 [9] is reported as 2.21 µM. For the same compound, the IC50 [10] was 7 µM and the IC50 [11] was 2.33 µM.
With `CC(C)C[C@H](NC(=O)OCc1ccccc1)C(=O)N[C@@H](Cc1ccccc1)C(=O)N[C@H](/C=C/C(=O)c1ccccc1)CCC(N)=O` the Ratio [4] was 500000 M⁻¹ s⁻¹, the EC50 [5] was 4 µM and the CC50 at 48 h [6] was 16 µM.
Work on `O=C/C=C/c1ccccc1` yielded a K [2] of 0.64 M⁻¹ s⁻¹.
For `COc1ccc(C(=O)CC(SCCN)c2ccc(OC)c(OC)c2)c(OC)c1` (centres undefined), the K [2] was 0.19 M⁻¹ s⁻¹.
For `CCOC(=O)/C=C/[C@H](CCC(N)=O)NC(=O)[C@H](Cc1ccccc1)NC(=O)[C@H](CC(C)C)NC(=O)OCc1ccccc1`, the CC50 at 48 h [6] was > 320 µM.
With `CC1=CC[C@]23O[C@@]2(C)CC[C@@H]2[C@H](OC(=O)[C@H]2CN2CCCCC2)[C@@H]13` the IC50 [7] was 14.3 µM, the IC50 [8] was 18.9 µM and the IC50 [9] was 4.76 µM. For the same compound, the IC50 [10] was 8.1 µM and the IC50 [11] was 16.9 µM.
For `COc1ccc(C(=O)C(c2ccc([N+](=O)[O-])cc2)C(SCCN)c2ccc(OC)c(OC)c2)c(OC)c1` (centres undefined), the K [2] was 0.29 M⁻¹ s⁻¹.
For `CC/C=C/C=O`, the K [1] was 28.3 M⁻¹ s⁻¹.
For `C=CS(=O)(=O)Nc1ccc([N+](=O)[O-])cc1`, the K [3] was 9 ×10⁻³ /s.
`C=CC(=O)OCCCC` showed a K [1] of 8.54 M⁻¹ s⁻¹.
In the case of `COc1cc(/C=C/C(=O)CC(=O)/C=C/c2ccc(O)c(OC)c2)ccc1O`, the K [2] is reported as 0.066 M⁻¹ s⁻¹.
`CC(C)=CC=O` showed a K [1] of 1.71 M⁻¹ s⁻¹.
Compound `C/C=C/C(=O)OC` has a K [1] of 0.164 M⁻¹ s⁻¹.
Work on `COc1ccc(C(=O)C(I)C(SCCN)c2ccc(OC)c(OC)c2)c(OC)c1` (centres undefined) yielded a K [2] of 0.28 M⁻¹ s⁻¹.
In the case of `COC(=O)/C=C/[C@H](CCC(N)=O)NC(=O)[C@H](Cc1ccccc1)NC(=O)[C@H](CC(C)C)NC(=O)OCc1ccccc1`, the Ratio [4] is reported as 20000 M⁻¹ s⁻¹, the EC50 [5] is reported as 1.3 µM and the CC50 at 48 h [6] is reported as > 320 µM.
With `COC(=O)/C=C/CNC(=O)c1ccccc1` the K [3] was 3.7 ×10⁻⁴ /s.
Compound `C=C(C=O)CC` has a K [1] of 59.4 M⁻¹ s⁻¹.
Compound `C#CCOC(=O)C=C` has a K [1] of 51.4 M⁻¹ s⁻¹.
`C=CC(=O)Nc1ccccc1` showed a K [3] of 1.6 ×10⁻⁴ /s.
`CS(=O)(=O)/C=C/CNC(=O)c1ccc([N+](=O)[O-])cc1` gave a K [3] of 4 ×10⁻³ /s.
`COc1ccc(C(=O)C(F)C(SCCN)c2ccc(OC)c(OC)c2)c(OC)c1` (centres undefined) showed a K [2] of 0.017 M⁻¹ s⁻¹.
For `CCN(CC)c1ccc(C(=O)/C=C/[C@H](CCC(N)=O)NC(=O)[C@H](Cc2ccccc2)NC(=O)[C@H](CC(C)C)NC(=O)OCc2ccccc2)cc1`, the Ratio [4] was 4500 M⁻¹ s⁻¹, the EC50 [5] was > 25 µM and the CC50 at 48 h [6] was 25 µM.
`CCOC(=O)C(C(=O)c1ccc(OC)cc1OC)C(SCCN)c1ccc(OC)c(OC)c1` (centres undefined) gave a K [2] of 0.28 M⁻¹ s⁻¹.
`CC(C)C[C@H](NC(=O)OCc1ccccc1)C(=O)N[C@@H](Cc1ccccc1)C(=O)N[C@H](/C=C/C(=O)n1ccc2ccccc21)CCC(N)=O` showed a Ratio [4] of 53000 M⁻¹ s⁻¹, an EC50 [5] of 1.8 µM and a CC50 at 48 h [6] of 29 µM.
In the case of `C/C=C(\C)C(C)=O`, the K [1] is reported as 0.779 M⁻¹ s⁻¹.
In the case of `CCOC(=O)/C(F)=C/[C@H](CCC(N)=O)NC(=O)[C@H](Cc1ccccc1)NC(=O)[C@H](CC(C)C)NC(=O)OCc1ccccc1`, the Ratio [4] is reported as 60 M⁻¹ s⁻¹, the EC50 [5] is reported as > 320 µM and the CC50 at 48 h [6] is reported as > 320 µM.
In the case of `C=CS(=O)(=O)Nc1ccc(OC)cc1`, the K [3] is reported as 2.8 ×10⁻² /s.
In the case of `CC(C)C[C@H](NC(=O)OCc1ccccc1)C(=O)N[C@@H](Cc1ccccc1)C(=O)N[C@H](/C=C/C(=O)N1CCOC1=O)CCC(N)=O`, the Ratio [4] is reported as 600000 M⁻¹ s⁻¹, the EC50 [5] is reported as 1.6 µM and the CC50 at 48 h [6] is reported as > 100 µM.
For `C=CC(=O)Nc1ccc([N+](=O)[O-])cc1`, the K [3] was 8 ×10⁻² /s.
For `COC(=O)/C=C\[C@H](CCC(N)=O)NC(=O)[C@H](Cc1ccccc1)NC(=O)[C@H](CC(C)C)NC(=O)OCc1ccccc1`, the Ratio [4] was 2400 M⁻¹ s⁻¹, the EC50 [5] was 4.2 µM and the CC50 at 48 h [6] was > 320 µM.
For `COc1ccc(C(=O)NC/C=C/S(C)(=O)=O)cc1`, the K [3] was 2.8 ×10⁻³ /s.
With `CCNC(=O)/C=C/[C@H](CCC(N)=O)NC(=O)[C@H](Cc1ccccc1)NC(=O)[C@H](CC(C)C)NC(=O)OCc1ccccc1` the Ratio [4] was 350 M⁻¹ s⁻¹, the EC50 [5] was > 320 µM and the CC50 at 48 h [6] was > 320 µM.
With `C=C(C)C=O` the K [1] was 203 M⁻¹ s⁻¹.
`C/C=C(\C)C(=O)OC` gave a K [1] of 0.007 M⁻¹ s⁻¹.
`CCCC/C=C/C(C)=O` showed a K [1] of 11.4 M⁻¹ s⁻¹.
In the case of `CC(C)C[C@H](NC(=O)OCc1ccccc1)C(=O)N[C@@H](Cc1ccccc1)C(=O)N[C@H](/C=C/C(=O)O)CCC(N)=O`, the Ratio [4] is reported as 30 M⁻¹ s⁻¹, the EC50 [5] is reported as > 100 µM and the CC50 at 48 h [6] is reported as > 100 µM.
In the case of `CCOC(=O)/C(C)=C/[C@H](CCC(N)=O)NC(=O)[C@H](Cc1ccccc1)NC(=O)[C@H](CC(C)C)NC(=O)OCc1ccccc1`, the Ratio [4] is reported as 7300 M⁻¹ s⁻¹, the EC50 [5] is reported as 3 µM and the CC50 at 48 h [6] is reported as > 320 µM.
Work on `COc1ccc(C(=O)C(Cl)C(SCCN)c2ccc(OC)c(OC)c2)c(OC)c1` (centres undefined) yielded a K [2] of 1.6 M⁻¹ s⁻¹.
